pIC50: −log10 of the molar value. “Also recorded” adds a separate entry of the source.
Key:
[1] = system: A549 (human lung carcinoma) cell line; test: Cell viability (MTT) of ABTL0812 in combination with docetaxel in lung cancer; assay type: cell-based; conditions: A549, three days, FBS 0.5%, single agent
Experimental: Methods: A549 cells were incubated with increasing concentrations of ABTL0812 (3-300 μM), docetaxel (0.01-100 μM), or a combination of both (subIC50, i.e., 20 μM fixed concentration of ABTL812 and 0.01-100 μM docetaxel) for three days (FBS 0.5%). […] In the denominator, (Dx)1 is for D1“alone” that inhibits a system x %, and (Dx)2 is for D2“alone” that inhibits a system x %.

[2] = system: human endometrial cancer patient derived xenograft; test: Patient-derived xenograft (PDX) endometrial model, paclitaxel and carboplatin
Experimental: After tumors grew up to 100 mm^3, tumors were extracted from mice, minced in 2 mm long pieces and re-implanted in one flank of 40 mice. When average tumor volume reached 100 mm^3, mice were randomly distributed into treatment groups, and dosed as follows: vehicle (n=11); ABTL0812: 120 mg/kg orally, 5 times per week (n=10); paclitaxel/carboplatin (P/C): P:50 mg/kg/C:15 mg/kg intraperitoneal (n=12); and ABTL0812+P/C: ABTL0812 (n=10) was administered always two days prior to the first P/C administration and two days after, maintaining 4 doses of ABTL0812 and one of P/C per week; doses were the same as when given separately.
The effectiveness of the therapy was measured by the impact of the treatment on the tumor growth, which was measured by its volume. The health state of the animals and the drug-induced toxicity were determined by the animal body weight during the study. Tumor size evolution and tumor weight were evaluated by two-way ANOVA (day by day analysis).
In order to simulate the Phase II clinical trial design, where ABTL0812 will be administered chronically after P/C cycles, P/C treatment was removed from P/C and ABTL0812+P/C groups, maintaining ABTL0812 chronically. Tumor volume was measure after P/C treatment removal during an extra 17 days.

[3] = system: MiaPaca2 human pancreatic cancer xenograft; assay type: in vivo; conditions: ABTL0812 120 mg/kg oral; P/Gm 15 mg/kg and 60 mg/kg two times per week; 4 weeks
Experimental: Methods: Athymic female nude mice (n=9 per group) were injected via subcutaneous route with 0.1 ml of MiaPaca2 cells (5×10^6 cell/ml in serum free DMEM media in 1:1 with matrigel) in one flank. Tumor Volumes (TV) were measured as length×width^2×½ three times a week.

[4] = system: EGI-1 human cholangiocarcinoma xenograft; test: Human cholangiocarcinoma (EGI-1) xenograft, gemcitabine and cisplatin; assay type: in vivo, Nu/nu male mice; conditions: ABTL0812 120 mg/kg oral; gemcitabine 50 mg/kg and cisplatin 2 mg/kg i.p. once a week
Experimental: Methods: EGI-1 cell line was routinely cultured in DMEM 10% FBS and cells in an exponential growth phase were harvested and counted for tumor inoculation.
Treatment groups were: • Vehicle group (n=8): treated orally with 200 μl of water+5% glycerol four days a week and two injections i.p. of 100 μl of saline solution once a week • ABTL0812 (n=8): treated orally with 200 μl of 120 mg/kg of ABTL0812 resuspended in water+5% glycerol 5 times a week • Gemcitabine/cisplatin (n=8): treated with 100 μl of 50 mg/kg of gemcitabine administered i.p. and 100 μl of 2 mg/kg of cisplatin administered i.p. once a week • ABTL0812+gemcitabine/cisplatin (n=8): treated orally with 200 μl of 120 mg/kg of ABTL0812 four days a week and 100 μl of 50 mg/kg of gemcitabine administered i.p. and 100 μl of 2 mg/kg of cisplatin administered i.p. once a week

[5] = system: A549 human lung adenocarcinoma xenograft; assay type: in vivo; conditions: ABTL0812 30 mg/kg/day oral 5 times a week; docetaxel 5 mg/kg i.p. once a week
Experimental: Methods: Mice were injected with 5×10^6 A549 cells in each flank to induce tumor formation. […] ABTL0812 was administered by the oral route at 30 mg/kg/day, 5 times a week. Docetaxel 5 mg/kg was administered intra-peritoneally once a week (Coxon et al. 2012). Tumor volume and body weight were monitorized 3 times a week.

[6] = assay type: in vivo
Experimental: Methods: Forty-five female CD-1 mice were distributed by means of the body weight stratification method into nine experimental groups (A-I) (5 animals for group) that differed in the treatment or in the day on which the reference items (paclitaxel and carboplatin) were administered.
The table below summarizes the treatment groups. Please note that the same administration schedule and doses were administered as in the previous efficacy studies.
The safety assessment relied on observed mortality, local and systemic clinical signs, body weight and food consumption recorded throughout the whole study. In addition, clinical pathology determinations (biochemistry and hematology) were performed before sacrifice in all animals. At the end of the observation period (one day after the last administration), all surviving animals were sacrificed and subjected to a gross necropsy. Moreover, the safety assessment was also based on the weight of selected target organs collected at sacrifice.

[7] = system: MDB-DA-231 (human triple negative breast cancer); test: Cell viability (MTT) of ABTL0812 alone or with paclitaxel in breast cancer; assay type: cell-based
Experimental: Methods: MDB-DA-231 cells were seeded in 24-well plates together with increasing concentration of paclitaxel (1-100 nM) in the presence of 5, 10 and 20 μM of ABTL0812 (all doses below to an IC25) for 48h (0.5% FBS). Cell viability was studied by the MTT assay and several parameters were determined to evaluate a possible synergism. First the IC50 for each drug alone or the combination was calculated.

## CCCCC/C=C\C/C=C\CCCCCCC(O)C(=O)O (centres unmarked) [ABTL0812, COOH—CHOH—(CH2)6—(CH═CH—CH2)2—(CH2)3—CH3]
[1]
  pIC50: 4.38
[2]; after day 47, P/C stopped, ABTL0812 maintained chronically, extra 17 days
  tumor growth after P/C removal: tumor growth inhibition very similar to P/C
[2]; first 47 days, ABTL0812 120 mg/kg orally, P 50 mg/kg / C 15 mg/kg i.p.
  tumor growth (volume): same efficacy as P/C
[2]; mouse, in vivo
  total body weight, toxicity: without any signs of relevant toxicity; also recorded: Body weight reduction was observed partially only in ABTL0812 group at day 15
[3]
  tumor volume: positive effect within the first 15 days after treatment, showing similar tumor volume to vehicle group in the following days
[4]
  tumor volume: did not show tumor volume reduction compared to vehicle until the last day of treatment
[5]
  tumor volume: significantly reduced tumor volume when compared to control animals
[6]; mouse, in vivo
  Biochemistry Creat: 9.18 µmol/L
  Biochemistry Triglyc: 0.94 mmol/L
  Biochemistry Urea: 3.66 mmol/L
  Body Weight Gain D 8-11: 0.138 g
  Hematology PLT: 1293 ×10^3/μL
  Hematology RBC: 9.57 ×10^6/μL
  Hematology WBC: 5.94 ×10^3/μL
[6]; two-week administration
  mortality and tolerability: did not cause mortality and was well tolerated
[7]; MDB-DA-231
  cytotoxicity alone at the concentration chosen for the combination: < 10%
[7]; MDB-DA-231, 48h, 0.5% FBS, MTT, single agent
  pIC50: 4.54
